Test results as given in BindingDB's records for patent US9745282 (Merck Sharp & Dohme Corp, 2017).

biological target: T1, Cytochrome P450 11B1, mitochondrial (Homo sapiens, UniProt P15538)
T1 sequence (P15538 whole entry): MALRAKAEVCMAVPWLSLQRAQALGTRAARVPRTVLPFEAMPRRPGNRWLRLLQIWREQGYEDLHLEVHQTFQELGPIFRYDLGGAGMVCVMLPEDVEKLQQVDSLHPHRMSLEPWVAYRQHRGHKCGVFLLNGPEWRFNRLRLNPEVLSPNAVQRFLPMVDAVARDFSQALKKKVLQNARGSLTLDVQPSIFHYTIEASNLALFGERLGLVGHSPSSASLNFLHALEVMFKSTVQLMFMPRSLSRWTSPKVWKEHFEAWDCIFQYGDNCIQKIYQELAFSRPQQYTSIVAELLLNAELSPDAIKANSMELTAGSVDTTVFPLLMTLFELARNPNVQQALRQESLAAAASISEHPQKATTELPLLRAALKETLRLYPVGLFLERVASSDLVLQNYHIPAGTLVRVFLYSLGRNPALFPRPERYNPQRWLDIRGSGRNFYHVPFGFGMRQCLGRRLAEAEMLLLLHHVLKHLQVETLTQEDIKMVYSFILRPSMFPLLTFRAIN

| Structure (SMILES) | IC50 [nM] |
| --- | --- |
| CC(C)C(=O)N1CCc2cc(-c3cncc4ccccc34)ccc21 [US9745282, 30] | 3720 |
| O=C(N1CCc2cc(-c3cncc(F)c3)cc(Cl)c21)C(F)(F)F [US9745282, 32] | 525 |
| O=C(N1CCc2cc(-c3cncc(F)c3)cc(F)c21)C(F)(F)F [US9745282, 33] | 1410 |

Stronger by IC50, values ahead:

| IC50 [nM] | Structure (SMILES) |
| --- | --- |
| 270 | CC(=O)N1CCc2cc(-c3cncc(F)c3C)cc(Cl)c21 [US9745282, 8] |
| 68 | CC(=O)N1CCc2cc(-c3cnccc3C)cc(F)c21 [US9745282, 15] |
